US9079863B2, “Crystalline forms for 5-amino-2,3-dihydrophthalazine-1,4-dione sodium salt, pharmaceutical preparations containing the same and method for the production of said forms” (METRIOPHARM AG, priority 2010, dated 2015)
Counter-ions that a name gives are not always drawn. Like-named read-outs stand apart in the source and are kept apart here.

Assays:
S. pyogenes [1] = settings: 48 hours after the infection
Description: (§1) In a mouse model of the Gram-positive sepsis (infection with S. pyogenes) the therapeutic usability of the crystal forms I and II of the 5-amino-2,3-dihydrophthalazine-1,4-dione sodium salt was tested. The administration of active ingredient was made parenterally 6 hours after the infection occurred. A second administration of active ingredient was made 24 hours after the first application. The test was completed 48 hours after the infection. For both forms (substance groups) three different doses were used. The mice obtained 2, 20 or 200 μg each of form I or form II per animal and application.

[2] = healthy mice, end of the second application day
Description: When administering form I and form II to healthy mice, it was investigated, whether and which influence the application has on certain liver enzymes, in particular the transaminases GOT (AST) and GPT (ALT). Blood taking occurred at the end of the second application day.

S. pyogenes [3] = settings: 48 hours after the infection; remark: listed apart in the source
Description: as §1
(§2) The individual treatment groups comprised 5 animals each, and for the not infected controls two repetitions and for the infected controls and that groups that contained form II four repetitions were made, so that in total 180 animals were in the test.
In the sepsis model described in Example 3, the influence the crystal forms II and I of the 5-amino-2,3-dihydrophthalazine-1,4-dione sodium, salt on the probability of survival of the mice infected with S. pyogenes was tested.

[4] = test system: isolated mouse bone marrow macrophages
Description: For this purpose, isolated mouse bone marrow macrophages were first treated with form II in concentrations of 2, 20 or 200 μg/mL and stimulated 1 h after treatment with 100 ng/mL or 10 ng/mL LPS. The supernatants were collected 24 h later, and the concentration of TNF-alpha and IL-6 was measured. Not stimulated macrophages, not stimulated macrophages treated with 200 μg/mL form II and LPS-stimulated macrophages (10 or 100 ng/mL LPS) were used as controls.

[5] = for Disintegration temperature: 30-500° C. in synthetic air (4 N2: 1 O2), sodium salt
Description: (Table 5). The solid phase transformation of the dihydrate according to U.S. Pat. No. 6,483,326 B1 was measured by means of the simultaneous thermogravimetry-differential thermal analysis with a Linseis L81-077 coupled with mass spectroscopy measurement with a Netzsch STA 449 C thermobalance, with MS and FTIR coupling at 30-300° C. under helium. The disintegration temperatures of forms I-II were determined with the same device at 30-500° C. in synthetic air (4 N2: 1 O2). The data were analyzed with the factory-set software Proteus.

[6] = 0.25 g in 10 mL H2O VE, stirring 500 rpm, 25° C., first minutes after addition; sodium salt
Description: The complete dissolution of 0.25 g form I or form II, respectively, in 10 mL H2O VE was achieved under stirring (500 rpm) at 25° C.

[7] = healthy mice
Description: as §1
Blood taking occurred after 48 hours at the end of the second application day.

S. pyogenes [8] = settings: infected mice, sodium salt; for Weight development/increase Total MW: complete test time 48 h, survivors
Description: as §1, §2
In the sepsis model described in Example 3, the influence of crystal forms I and II of the 5-amino-2,3-dihydrophthalazine-1,4-dione sodium salt on the weight development of mice infected with S. pyogenes was tested. The development of the body weight during an acute infection may supply important predictive information.

[9] = not infected mice; for Weight development/increase MW: over two days
Description: as §1, §2
It is known that the toxicity of substances in an animal test with growing-up mice or rate can influence the weight development.

S. pyogenes [10] = settings: for Germ load (CFU) Blood MW / Germ load (CFU) Liver MW: 48 hours after the infection, sodium salt
Description: as §1, §2
In the sepsis model described in Example 3, the influence of crystal forms II and I of the 5-amino-2,3-dihydrophthalazine-1,4-dione sodium salt on the germ load of the mice infected with S. pyogenes in blood and liver was tested. The test was completed 48 hours after the infection, and the germ load (CFU) existing at this time in blood and liver was determined (see Table).

[11] = test system: stimulated murine macrophages; settings: 1 μg/mL LPS with 100 μg/mL
Description: These were measured in the combination of 2 μg/mL active ingredient with macrophages stimulated with 100 ng/mL LPS as well as in the group of the macrophages stimulated with 10 ng/mL in the active ingredient concentration with 20 μg/mL.

physchem = settings: saturated solution
Description: Further, the solubility of the crystalline forms in a saturated solution was determined.

[12] = dose 2 μg, LPS 10 ng/mL, supernatant 24 h
[13] = dose 2 μg, LPS 100 ng/mL, supernatant 24 h
[14] = dose 20 μg, LPS 10 ng/mL, supernatant 24 h
[15] = dose 20 μg, LPS 100 ng/mL, supernatant 24 h
[16] = dose 200 μg, LPS 10 ng/mL, supernatant 24 h
[17] = dose 200 μg, LPS 100 ng/mL, supernatant 24 h
[18] = dose 200 μg, not stimulated (no LPS)

With `Nc1cccc2c(=O)[nH][nH]c(=O)c12` [Form II, 5-amino-2,3-dihydrophthalazine-1,4-dione sodium salt] the “IL-6 in infected mice” value (S. pyogenes [1]; not confirmed in all repetitions) was “in part distinct tendencies of an IL-6 reduction”, the “Liver enzyme values GOT (AST) and GPT (ALT)” value (S. pyogenes [1]; infected mice, some repetitions only) was “tendencies to reduce the liver enzyme values” and the “Transaminases GOT (AST) and GPT (ALT)” value [2] was “Distinct differences between the groups could not be found”. For the same molecule, the “Share of surviving mice” value (S. pyogenes [3]; 2 μg, sodium salt) was 90%, the “Share of surviving mice” value (S. pyogenes [3]; 20 μg) was 80% and the “Share of surviving mice” value (S. pyogenes [3]; 200 μg, sodium salt) was 70%. The “Survival compared to the controls” value (S. pyogenes [3]) was “increase of the share of surviving animals”, the “Share of surviving mice” value (S. pyogenes [3]; all doses (total)) was 80% and the “Change of TNF-alpha” value ([4]; 10 ng/mL LPS, 200 μg/mL) was “significant reduction”. For the same molecule, the “Change of TNF-alpha concentration” value ([4]; 100 ng/mL LPS, all active ingredient concentrations) was “significant reduction”, the “Change of IL-6 values” ([4]; 2 μg/mL with 100 ng/mL LPS) was “significant reductions” and the “Change of IL-6 values” ([4]; 20 μg/mL with 10 ng/mL LPS) was “significant reductions”. The “IL-6 MW” value [4, 12] was 3.93 ng/mL, the “TNF-alpha MW” value [4, 12] was 8.38 ng/mL and the “IL-6 MW” value [4, 13] was 2.67 ng/mL. For the same molecule, the “TNF-alpha MW” value [4, 13] was 7.40 ng/mL, the “IL-6 MW” value [4, 14] was 1.61 ng/mL and the “TNF-alpha MW” value [4, 14] was 9.80 ng/mL. For the same molecule, the “IL-6 MW” value [4, 15] was 4.28 ng/mL, the “TNF-alpha MW” value [4, 15] was 9.06 ng/mL and the “IL-6 MW” value [4, 16] was 3.42 ng/mL. The “TNF-alpha MW” value [4, 16] was 6.76 ng/mL, the “IL-6 MW” value [4, 17] was 4.00 ng/mL and the “TNF-alpha MW” value [4, 17] was 7.69 ng/mL. For the same molecule, the “IL-6 MW” value [4, 18] was 0.00 ng/mL, the “TNF-alpha MW” value [4, 18] was 0.00 ng/mL and the “Immunostimulating effect on not LPS-induced macrophages” value ([4]; not LPS-induced) was “could not be shown”. The Disintegration temperature ([5]; listed as form II) was 385 °C, the Disintegration temperature [5] was 385 °C ± 10 °C and the “Time for which the crystalline form is stable” value ([5]; room temperature (25° C.) and 40° C.) was “at least two”. For the same molecule, the “Initial dissolution rate” value [6] was “higher than that of form I”, the “TNF-alpha MW” value ([7]; 2 μg, blood after 48 hours, sodium salt) was 0.0 pg/mL and the “TNF-alpha MW” value ([7]; 20 μg, blood after 48 hours, sodium salt) was 0.0 pg/mL. For the same molecule, the “TNF-alpha MW” value ([7]; 200 μg, blood after 48 hours, sodium salt) was 16.94 pg/mL, the “TNF-alpha MW” value ([7]; all doses (total), blood after 48 hours, sodium salt) was 5.65 pg/mL and the “IL-6 increase” value ([7]; blood after 48 hours) was “neither in the substance groups nor in the control groups increases could be found”. For the same molecule, the “TNF-alpha increase” value ([7]; compared to the other groups, sodium salt) was “do not cause a relevant increase”, the “Weight development/increase Total MW” value (S. pyogenes [8]; 2 μg) was -2.02 g and the “Weight development/increase Day 1 MW” value (S. pyogenes [8]; 2 μg) was -0.57 g. For the same molecule, the “Weight development/increase Total MW” value (S. pyogenes [8]; 20 μg) was -1.69 g, the “Weight development/increase Day 1 MW” value (S. pyogenes [8]; 20 μg) was -0.55 g and the “Weight development/increase Total MW” value (S. pyogenes [8]; 200 μg) was -1.86 g. The “Weight development/increase Day 1 MW” value (S. pyogenes [8]; 200 μg) was -0.72 g, the “Weight development/increase Total MW” value (S. pyogenes [8]; all doses (total)) was -1.86 g and the “Weight development/increase Day 1 MW” value (S. pyogenes [8]; all doses (total)) was -0.62 g. For the same molecule, the “Toxicity judged from weight development” value [9] was “do not have any toxicity or at most a very small one”, the “Weight development/increase MW” value ([9]; 2 μg per animal and application, parenteral, sodium salt) was -0.14 g and the “Weight development/increase MW” value ([9]; 20 μg per animal and application, parenteral, sodium salt) was 1.43 g. For the same molecule, the “Weight development/increase MW” value ([9]; 200 μg per animal and application, parenteral, sodium salt) was 0.50 g, the “Weight development/increase MW” value ([9]; all doses (total)) was 0.59 g and the “Germ load (CFU) Blood MW” value (S. pyogenes [10]; 2 μg) was 5.96 log/mL. The “Germ load (CFU) Liver MW” value (S. pyogenes [10]; 2 μg) was 6.13 log/g, the “Germ load (CFU) Blood MW” value (S. pyogenes [10]; 20 μg) was 5.88 log/mL and the “Germ load (CFU) Liver MW” value (S. pyogenes [10]; 20 μg) was 6.79 log/g. The “Germ load (CFU) Blood MW” value (S. pyogenes [10]; 200 μg) was 5.54 log/mL, the “Germ load (CFU) Liver MW” value (S. pyogenes [10]; 200 μg) was 6.14 log/g and the “Germ load (CFU) Blood MW” value (S. pyogenes [10]; all doses (total)) was 5.80 log/mL. For the same molecule, the “Germ load (CFU) Liver MW” value (S. pyogenes [10]; all doses (total)) was 6.36 log/g, the “Germ count in the blood compared to the controls” value (S. pyogenes [10]; highest dose) was “tendentious germ count reduction” and the “Effect on IL-6 values” [11] was “immunodepressive effect”. The Solubility (physchem; in water at room temperature, sodium salt) was 252 mg/mL and the “Solubility in comparison” value (physchem) was “more soluble than form I”.
